# Source: US11760754B2, “Heterocyclic mitochondrial activity inhibitors and uses thereof” (UNIVERSITÉ DE MONTRÉAL, priority 2017, dated 2023)
# Where two headings read alike, the source gives them in different places.
# What was measured:
# [1] = test system: AML patient cells; assay: Primary AML patient cell dose-response viability assay (chemical screen); conditions: for EC50: Homo sapiens
# [2] = test system: OCI-AML3 cells; assay: OCI-AML3 cell growth inhibition, dose-response viability assay (CellTiterGlo); assay type: cell-based; conditions: for EC50: Homo sapiens, OCI-AML-3, 144 h, read-out: AML-3 EC50
# How it was run: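 OCI-AML3 cells seeded, then exposed to compound in serial dilutions from 10 μM to 0.5 nM, in duplicate or quadruplicate. Viability read by CellTiter-Glo.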
# [3] = test system: OCI-AML3 cells
# Description: LC/MS metabolite measurements were carried out at the McGill Metabolomics platform. Authentic metabolite standards were purchased from Sigma-Aldrich Co., while the following LC/MS grade solvents and additives were purchased from Fisher: ammonium acetate, formic acid, water, methanol, and acetonitrile. OCI-AML3 cells (5 million cells, quadruplicates, treated with either DMSO or Mubritinib 500 nM for 20 h) were washed twice with ice-cold 150 mM ammonium formate pH 7.2. Metabolites were then extracted using 380 μl of LC/MS grade 50% methanol/50% water mixture and 220 μl of cold acetonitrile. Samples were then homogenized by 1.4 mm ceramic bead beating 2 min at 30 Hz (TissueLyser, Qiagen). A volume of 300 μl of ice-cold water and 600 μl of ice-cold methylene chloride were added to the lysates. Samples were vortexed and allowed to rest on ice for 10 min for phase separation followed by centrifugation at 4,000 rpm for 5 min. The upper aqueous layer was transferred to a fresh pre-chilled tube. Samples were eventually dried by vacuum centrifugation operating at −4° C. (Labconco) and stored at −80° C. until ready for LC-MS/MS data collection. For LC-MS/MS analysis, specimens were first re-suspended in 50 μl of water and clarified by centrifugation for 15 min at 15,000 rpm at 1° C. Samples were maintained at 4° C. for the duration of the LC-MS/MS analysis in the autosampler. Specimens were separated by U-HPLC (Ultra-High-Performance Liquid Chromatography) (1290 Infinity, Agilent Technologies) using a Scherzo SM-C18 (3 mm×150 mm) 3 μm column and guard column (Imtakt USA) operating at 10° C.
# [4] = test system: Complex I; conditions: OCI-AML3 cells, ubiquinone-dependent vs -independent activity
# [5] = test system: pyruvate dehydrogenase (PDH); conditions: OCI-AML3 cells
# [6] = test system: ETC complex I; conditions: cell free assay
# Text: The cell-free kit assay for ETC complex I activity was purchased from MitoSciences (Abcam, Cambridge, UK), and used in accordance with the manufacturer's protocol.
# [7] = test system: OCI-AML5 cells; conditions: 6-day culture, 384-well plates
# [8] = test system: OCI-AML3 leukemic cells
# Description: Oxygen consumption rates and extracellular acidification rates were measured using a 96-well Seahorse Bioanalyzer XFe96® or XFe24® according to the manufacturer's instructions (Agilent Technologies). Seahorse XF Base medium was supplemented with 1 mM pyruvate, 2 mM glutamine and 10 mM glucose in the case of Mitochondrial Stress Test and with 1 mM pyruvate, 2 mM glutamine and no glucose in the case of Glycolytic Stress Test. The pH of the Seahorse media was then adjusted at 7.4 prior to assay. In brief, leukemic cells were seeded into Seahorse 96-well (or 24-well) plates pre-coated for 3 h with poly-lysine (Sigma-Aldrich, P4707) at a density of 75,000 cells/well in 100 μL (or 150,000 cells/well, in 150 μL) of temperature/CO2 pre-adjusted Seahorse media per well. The Seahorse plates were then centrifuged at 1400 rpm for 5 min. An additional 75 μL (or 375 μL) of Seahorse media was then added and cells were eventually analyzed following the manufacturer's instructions by adding compounds in a constant volume of 25 μL (or 75 μL). Compounds were acutely injected in cells at a final concentration of 1 μM for Mubritinib, 1 μM for Oligomycin, 0.5 μM for FCCP, 0.5 μM for Rotenone/Antimycin A, Glucose 10 mM and 2-Deoxy-Glucose 50 mM.
# [9] = test system: OCI-AML3 leukemic cells; conditions: 500 nM, 24 h
# Text: (§1) The following FACS antibodies were used: anti-human CD45 Pacific Blue (BioLegend 304029), CD45 fluorescein isothiocyanate (FITC; BioLegend 304006), CD33 phycoerythrin (PE; BD Bioscience 555450), CD33 BV421 (BD 562854), CD34 […] (APC; BD Bioscience 555824), CD34 APC (Stem Cell Technologies 10613), CD3 FITC (BD Bioscience 555332), CD4 APC-Cy7 (BD 560158), CD8 APC (BD 555369), CD3 PE-Cy5 (BD 555334), CD19 PE-Cy7(BD Bioscience 557835), anti-mouse CD45.1 APC-efluor730 (eBioscience 47-0453-82), ERBB2-PE (Biolegend®, 324406), Annexin V FITC (BD Bioscience®, 556419). Dead cells were stained using Propidium iodide at a final concentration of 1 μg/mL. For ROS quantification cells were stained with 1 μM H2DCFDA (Thermo Fisher, […]) under normal growth conditions. Cells were analyzed on LSRII® flow cytometer (BD Bioscience®), BD Canto® II cytometer (BD Bioscience) or on an IQue Screener (Intellicyt®) and results were analyzed with BD fluorescence-activated cell sorter (FACS) Diva®4.1 and FlowJo®X software.
# [10] = test system: OCI-AML3 cells; remark: listed apart in the source
# Text: as §1
# [11] = test system: Normal primitive CD34-positive cord blood cells; assay: cells; conditions: Homo sapiens, CD34-positive cell, read-out: EC50 in normal primitive CD34-positive cord blood cells
# [12] = test system: MLL-AF9 cells; assay: MLL-AF9 leukemia cell growth inhibition, dose-response viability assay (CellTiterGlo); assay type: cell-based, murine; conditions: Mus musculus, MLL-AF9, 120 h, read-out: MLL-AF9 EC50
# How it was run: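 Murine MLL-AF9 leukemia cells (female, MSCV MLL-AF9 IRES Puro transduced) were treated with serial compound dilutions from 10 μM to 0.5 nM in duplicates or quadruplicates. Viability read by CellTiterGlo dose-response.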
# [13] = 500 nM, 24 h, relative to DMSO control
compound,measurement,setting,value
"CS(=O)(=O)CCNCc1ccc(-c2ccc3ncnc(Nc4ccc(OCc5cccc(F)c5)c(Cl)c4)c3c2)o1 [Lapatinib, Lapatinib ditosylate, reference compound]",sensitivity of AML patient specimens,"[1]; 41 AML patient specimens, primary screen",resistant
same,OCI-AML3 cells sensitive to the compound (dose response),[2]; OCI-AML3 cells,not
FC(F)(F)c1ccc(/C=C/c2nc(COc3ccc(CCCCn4ccnn4)cc3)co2)cc1 [Mubritinib],EC50,[1]; read-out: Median EC50 in the AML population tested,~375 nM
same,EC50,"[1]; read-out: median EC50, AML specimens with simultaneous mutations in NPM1, DNMT3A and FLT3-ITD",96 nM
same,EC50,"[1]; read-out: median EC50, other AMLs subtypes",423 nM
same,sensitivity of HOX-high versus HOX-med/low AML cells,"[1]; dose response validation screening, large cohort",significantly more sensitive
same,sensitivity of HOX-high versus HOX-med/low patient cells,[1]; primary screen of 60 compounds,significantly more sensitive
same,levels of oxidized glutathione,[3]; [13],increased
same,levels of reduced glutathione,[3]; [13],decreased
same,"levels of citric acid cycle intermediates (citrate, alpha-ketoglutarate, succinate, fumarate, malate)",[3]; OCI-AML3 cells,reduces
same,nature of inhibitory effect on complex I,[4],NADH-independent (i.e. ubiquinone-dependent)
same,effect on pyruvate dehydrogenase (PDH),[5],inhibit pyruvate dehydrogenase (PDH) in an indirect fashion
same,effect on ETC Complex I activity,[6],inhibitory effect
same,OCI-AML5 response to compound-induced cell death,[7],resistant
same,glycolytic switch,[8]; OCI-AML3 cells,induce a glycolytic switch
same,oxygen consumption rate,"[8]; acute injection, 1 μM",impaired
same,"level of ROS activity (hydroxyl, peroxyl), DCFDA",[9],increased
same,compound-induced apoptosis in the presence of ROS scavenger N-acetyl-cysteine (NAC),"[10]; 100 nM 24 h, 6 mM NAC pre-incubation 4 hours",significantly decreased
same,Annexin V staining (marker of apoptosis),"[10]; 24 hours, 100 nM or 10 μM",increase
same,number of dead (PI-positive) cells,[10]; 27 hours of treatment,increase
same,live cell counts (PI-negative cells),"[10]; four days of treatment, dose-dependent",reduction
same,OCI-AML3 cells sensitive to the compound (dose response),[2]; OCI-AML3 cells,sensitive
same,EC50,[11],> 375 nM
"OC(CCCn1ccnn1)c1ccc(OCc2coc(/C=C/c3ccc(OC(F)(F)F)cc3)n2)cc1 (stereo not drawn) [Compound 19, (E)-4-(1H-1,2,3-triazol-1-yl)-1-(4-((2-(4-(trifluoromethoxy)styryl)oxazol-4-yl)methoxy)phenyl)butan-1-ol]",EC50,[12],100 to 500 nM
same,EC50,[2],100 to 500 nM
"C[Si](C)(C)c1cn(CCCCc2ccc(OCc3coc(/C=C/c4ccc(Br)cc4F)n3)cc2)nn1 [Compound 3B, (E)-2-(4-Bromo-2-fluorostyryl)-4-((4-(4-(4-(trimethylsilyl)-1H-1,2,3-triazol-1-yl)butyl)phenoxy)methyl)oxazole]",EC50,[12],100 to 500 nM
same,EC50,"[2]; OCI-AML3 cells, 6 days of culture, CellTiterGlo",500 to 1000 nM
"Fc1cc(C(F)(F)F)ccc1/C=C/c1nc(COc2ccc(CCCCn3ccnn3)nc2)co1 [Compound 133, (E)-4-(((6-(4-(1H-1,2,3-triazol-1-yl)butyl)pyridin-3-yl)oxy)methyl)-2-(2-fluoro-4-(trifluoromethyl)styryl)oxazole]",EC50,[12],50 to 100 nM
same,EC50,[2],100 to 500 nM
"NC(=O)c1ccc(/C=C/c2nc(COc3ccc(CCCCn4ccnn4)cc3)co2)cc1 [Compound 63, (E)-4-(2-(4-((4-(4-(1H-1,2,3-triazol-1-yl)butyl)phenoxy)methyl)oxazol-2-yl)vinyl)benzamide]",EC50,[12],1000 to 10000 nM
same,EC50,[2],500 to 1000 nM
Fc1cc(C(F)(F)F)ccc1/C=C/c1nc(COc2ccc(CCCCn3cncn3)cc2)co1 [Compound 88],EC50,[12],500 to 1000 nM
same,EC50,[2],1000 to 10000 nM
